From PMC9067936, “SHIP164 is a chorein motif lipid transfer protein that controls endosome–Golgi membrane traffic” (The Journal of Cell Biology, 2022)

Molecular target: T1, 3XFLAG-SHIP164Δ901–1099 (Homo sapiens, UniProt A0JNW5, DEL901-1099)
T1 construct: gene BLTP3B; residues 901-1099 (predicted unstructured) deleted; N-terminal 3xFLAG tag kept; expressed in Expi293F; tail-to-tail dimer in vitro
Test: native gel co-migration, NBD fluorescence calibrated with E-Syt2 standard curve
Assay type: binding
Conditions: 0.2 mM NBD-PE, 2 h on ice; labelled compound; stoichiometry estimate

T1 sequence (A0JNW5 with tags, fused parts or gaps DEL901-1099): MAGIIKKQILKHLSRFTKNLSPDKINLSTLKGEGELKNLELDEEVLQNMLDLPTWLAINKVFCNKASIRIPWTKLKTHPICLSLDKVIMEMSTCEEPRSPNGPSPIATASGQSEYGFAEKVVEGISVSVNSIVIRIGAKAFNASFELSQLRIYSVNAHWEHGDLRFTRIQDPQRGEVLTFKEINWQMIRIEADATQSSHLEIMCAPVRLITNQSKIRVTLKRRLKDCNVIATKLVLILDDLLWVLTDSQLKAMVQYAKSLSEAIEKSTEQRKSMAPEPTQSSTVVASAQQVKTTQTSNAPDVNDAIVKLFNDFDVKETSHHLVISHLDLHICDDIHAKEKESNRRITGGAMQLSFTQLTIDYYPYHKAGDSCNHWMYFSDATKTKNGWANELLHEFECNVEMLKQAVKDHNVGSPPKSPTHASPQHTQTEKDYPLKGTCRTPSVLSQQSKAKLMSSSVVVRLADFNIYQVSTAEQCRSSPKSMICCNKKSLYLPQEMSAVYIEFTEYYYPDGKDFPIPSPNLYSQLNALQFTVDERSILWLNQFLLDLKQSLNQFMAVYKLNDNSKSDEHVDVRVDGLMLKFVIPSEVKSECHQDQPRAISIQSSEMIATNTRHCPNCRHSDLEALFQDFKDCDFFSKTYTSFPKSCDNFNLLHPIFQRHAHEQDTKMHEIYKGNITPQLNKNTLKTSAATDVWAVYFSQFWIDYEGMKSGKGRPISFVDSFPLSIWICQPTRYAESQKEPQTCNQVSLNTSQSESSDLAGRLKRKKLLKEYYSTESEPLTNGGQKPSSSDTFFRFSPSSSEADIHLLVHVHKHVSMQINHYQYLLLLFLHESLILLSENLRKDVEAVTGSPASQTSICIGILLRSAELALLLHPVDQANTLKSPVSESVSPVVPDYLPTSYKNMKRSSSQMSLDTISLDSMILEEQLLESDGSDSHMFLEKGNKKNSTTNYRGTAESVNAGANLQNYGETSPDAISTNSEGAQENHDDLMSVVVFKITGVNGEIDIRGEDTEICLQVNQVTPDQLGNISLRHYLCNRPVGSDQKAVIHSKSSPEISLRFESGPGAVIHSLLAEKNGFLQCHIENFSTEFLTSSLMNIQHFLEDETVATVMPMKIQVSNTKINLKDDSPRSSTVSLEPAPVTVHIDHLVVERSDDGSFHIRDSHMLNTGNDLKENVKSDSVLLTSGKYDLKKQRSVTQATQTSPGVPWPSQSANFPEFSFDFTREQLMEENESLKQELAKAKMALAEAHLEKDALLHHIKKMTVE

lipids per SHIP164 molecule: ~ 8 lipids per protein molecule
Structure (SMILES): CCCCCCCC/C=C\CCCCCCCC(=O)OC[C@H](COP(=O)(O)OCCNc1ccc([N+](=O)[O-])c2nonc12)OC(=O)CCCCCCC/C=C\CCCCCCCC [NBD-PE]
